Test results taken from patent US9580449B2, “Compositions and methods for the production of pyrimidine and pyridine compounds with BTK inhibitory activity” (Merck Patent GmbH, priority 2011, dated 2017).

Biological target: full-length human BTK (Homo sapiens (Human), UniProt Q06187)
Test: BTK IC50 enzyme assay (microfluidic off-chip mobility shift kinase assay)
Format: biochemical
Details: incubated for 90 min. at 27 C; read-out: Time Dependent BTK Enzyme Assay IC50
Summary of the method: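 Off-chip microfluidic mobility shift assay on full-length human BTK; substrate-to-product conversion measured by charge/mass separation of phosphorylated peptide after reaction stop.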

full-length human BTK, sequence (Q06187 whole entry): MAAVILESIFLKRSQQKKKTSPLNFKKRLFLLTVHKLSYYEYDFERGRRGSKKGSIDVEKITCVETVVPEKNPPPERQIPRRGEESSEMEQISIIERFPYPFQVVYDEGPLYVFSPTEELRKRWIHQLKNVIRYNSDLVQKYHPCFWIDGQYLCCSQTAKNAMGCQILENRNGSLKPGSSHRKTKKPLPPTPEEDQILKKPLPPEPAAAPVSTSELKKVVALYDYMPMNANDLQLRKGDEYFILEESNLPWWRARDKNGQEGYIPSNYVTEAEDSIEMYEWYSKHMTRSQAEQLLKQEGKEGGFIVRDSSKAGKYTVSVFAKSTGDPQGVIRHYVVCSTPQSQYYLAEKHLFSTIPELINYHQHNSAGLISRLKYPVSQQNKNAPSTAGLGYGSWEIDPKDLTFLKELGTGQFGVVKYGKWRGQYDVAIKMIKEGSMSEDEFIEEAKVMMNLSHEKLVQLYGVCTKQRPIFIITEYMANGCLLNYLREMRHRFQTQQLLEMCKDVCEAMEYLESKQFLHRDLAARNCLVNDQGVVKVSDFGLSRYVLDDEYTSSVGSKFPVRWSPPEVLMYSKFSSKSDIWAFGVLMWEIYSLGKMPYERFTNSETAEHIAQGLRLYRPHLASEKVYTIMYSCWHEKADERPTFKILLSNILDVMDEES

Row | Structure (SMILES) | IC50 [nM]
1 | C=CC(=O)NCCOc1ncnc(N)c1-c1ccc(Oc2ccccc2)cc1 [A27, N-(2-((6-amino-5-(4-phenoxyphenyl)pyrimidin-4-yl)oxy)ethyl)acrylamide] | > 1000
2 | Nc1cccc(-c2c(N)ncnc2Oc2ccc(Oc3ccccc3)cc2)c1 [A317, 5-(3-aminophenyl)-6-(4-phenoxyphenoxy)pyrimidin-4-amine] | > 1000
3 | C#CC(=O)N1CCC(CNc2ncnc(N)c2-c2ccc(Oc3ccccc3)cc2)CC1 [A46, 1-(4-(((6-amino-5-(4-phenoxyphenyl)pyrimidin-4-yl)amino)methyl)piperidin-1-yl)prop-2-yn-1-one] | < 100
4 | C=CC(=O)Nc1cccc(Oc2ncnc(N)c2-c2ccc(C(=O)N3CCCC3)cc2)c1 [A285, N-(3-((6-amino-5-(4-(pyrrolidine-1-carbonyl)phenyl)pyrimidin-4-yl)oxy)phenyl)acrylamide] | < 1000
5 | Nc1ncnc(NCC2(F)CCN(C(=O)CCN3CCCCC3)CC2)c1-c1ccc(Oc2ccccc2)cc1 [A235, 1-(4-(((6-amino-5-(4-phenoxyphenyl)pyrimidin-4-yl)amino)methyl)-4-fluoropiperidin-1-yl)-3-(piperidin-1-yl)propan-1-one] | > 1000
6 | C=CC(=O)N1CCC(CNc2ncnc(N)c2-c2cc(OC)c(OC)c(OC)c2)CC1 [A83, 1-(4-(((6-amino-5-(3,4,5-trimethoxyphenyl)pyrimidin-4-yl)amino)methyl)piperidin-1-yl)prop-2-en-1-one] | < 1000
7 | C=CC(=O)N1CCC(CNc2ncnc(N)c2-c2ccc(Oc3ccccn3)cc2)CC1 [A335, 1-(4-(((6-amino-5-(4-(pyridin-2-yloxy)phenyl)pyrimidin-4-yl)amino)methyl)piperidin-1-yl)prop-2-en-1-one] | < 1000
8 | Nc1ccc(-c2cnccc2Oc2ccc(Oc3ccccc3)cc2)cc1 [A314, 4-(4-(4-phenoxyphenoxy)pyridin-3-yl)aniline] | > 1000
9 | C=CC(=O)N1CCC(CNc2ncnc(N)c2-c2ccc(Cc3ccccc3)cc2)CC1 [A41, 1-(4-(((6-amino-5-(4-benzylphenyl)pyrimidin-4-yl)amino)methyl)piperidin-1-yl)prop-2-en-1-one] | < 100
10 | C=CC(=O)Nc1cccc(Oc2ncnc(N)c2-c2cnn(Cc3cccc(C(=O)OC)c3)c2)c1 [A206, methyl 3-((4-(4-(3-acrylamidophenoxy)-6-aminopyrimidin-5-yl)-1H-pyrazol-1-yl)methyl)benzoate] | < 100
11 | CC#CC(=O)N1CC[C@@H](CNc2ncnc(N)c2-c2ccc(Oc3ccccc3)cc2)[C@H](O)C1 [A215, 1-((3S,4S)-4-(((6-amino-5-(4-phenoxyphenyl)pyrimidin-4-yl)amino)methyl)-3-hydroxypiperidin-1-yl)but-2-yn-1-one] | < 100
12 | C=CC(=O)Nc1ccc(Oc2ccncc2-c2ccc(Oc3ccccc3)cc2)cc1 [A297, N-(4-((3-(4-phenoxyphenyl)pyridin-4-yl)oxy)phenyl)acrylamide] | > 1000
13 | C=CC(=O)N1C[C@@H](F)C[C@H](Nc2ncnc(N)c2-c2ccc(Oc3ccccc3)cc2)C1 [A204, 1-((3S,5S)-3-((6-amino-5-(4-phenoxyphenyl)pyrimidin-4-yl)amino)-5-fluoropiperidin-1-yl)prop-2-en-1-one] | < 100
14 | C=CC(=O)Nc1cccc(Oc2ncnc(N)c2-c2cnn(Cc3cccc(OC)c3)c2)c1 [A198, N-(3-((6-amino-5-(1-(3-methoxybenzyl)-1H-pyrazol-4-yl)pyrimidin-4-yl)oxy)phenyl)acrylamide] | < 100
15 | CC#CC(=O)[C@H]1CCC[C@H](Nc2ncnc(N)c2-c2ccc(Oc3ccccc3)cc2)C1 [A145, 1-((1S,3S)-3-(6-Amino-5-(4-phenoxyphenyl)-pyrimidin-4-ylamino)-cyclohexyl)-but-2-yn-1-one] | < 100
16 | C=CC(=O)N1CC2(CC(Nc3ncnc(N)c3-c3ccc(Oc4ccc(C#N)cc4)cc3)C2)C1 [A207, 4-(4-(4-((2-acryloyl-2-azaspiro[3.3]heptan-6-yl)amino)-6-aminopyrimidin-5-yl)phenoxy)benzonitrile] | < 1000
17 | Nc1ncnc(OC2CC3(C2)CN(C(=O)/C=C/CN2CC(F)(F)C2)C3)c1-c1ccc(Oc2ccccc2)cc1 [A223, (E)-1-(6-((6-amino-5-(4-phenoxyphenyl)pyrimidin-4-yl)oxy)-2-azaspiro[3.3]heptan-2-yl)-4-(3,3-difluoroazetidin-1-yl)but-2-en-1-one] | < 1000
18 | CN(C)C/C=C/C(=O)N1CC[C@H](CNc2ncnc(N)c2-c2ccc(Oc3ccccc3)cc2)C1 [A62, (R,E)-1-(3-(((6-amino-5-(4-phenoxyphenyl)pyrimidin-4-yl)amino)methyl)pyrrolidin-1-yl)-4-(dimethylamino)but-2-en-1-one] | < 1000
19 | C=CC(=O)Nc1cccc(Oc2ncnc(N)c2-c2ccc(Oc3ccc(F)cc3)nc2)c1 [A166, N-(3-((6-amino-5-(6-(4-fluorophenoxy)pyridin-3-yl)pyrimidin-4-yl)oxy)phenyl)acrylamide] | < 1000
20 | CCC(=O)Nc1cccc(-c2c(N)ncnc2Oc2ccc(Oc3ccccc3)cc2)c1 [A325, N-(3-(4-amino-6-(4-phenoxyphenoxy)pyrimidin-5-yl)phenyl)propionamide] | > 1000

Row | Structure (SMILES) | IC50 [nM]
21 | C=CC(=O)N1CCC(CNc2ncnc(N)c2-c2ccc(C(F)(F)F)cc2)CC1 [A81, 1-(4-(((6-amino-5-(4-(trifluoromethyl)phenyl)pyrimidin-4-yl)amino)methyl)piperidin-1-yl)prop-2-en-1-one] | > 1000
22 | C=CC(=O)N1CCCC(Nc2ncncc2-c2ccc(Oc3ccccc3)cc2)C1 (stereo not shown) [A284, 1-(3-((5-(4-phenoxyphenyl)pyrimidin-4-yl)amino)piperidin-1-yl)prop-2-en-1-one] | < 1000
23 | Nc1ncnc(NCC2CCN(C(=O)/C=C/CN3CC(F)C3)CC2)c1-c1ccc(Oc2ccccc2)cc1 [A218, (E)-1-(4-(((6-amino-5-(4-phenoxyphenyl)pyrimidin-4-yl)amino)methyl)piperidin-1-yl)-4-(3-fluoroazetidin-1-yl)but-2-en-1-one] | < 1000
24 | C=CC(=O)N1CCCC(COc2ncnc(N)c2-c2ccc(Oc3ccccc3)cc2)C1 (stereo not shown) [A17, 1-(3-(((6-amino-5-(4-phenoxyphenyl)pyrimidin-4-yl)oxy)methyl)piperidin-1-yl)prop-2-en-1-one] | < 100
25 | C=CC(=O)Nc1ccc(-c2cnccc2Oc2ccc(Oc3ccccc3)cc2)cc1 [A281, N-(4-(4-(4-phenoxyphenoxy)pyridin-3-yl)phenyl)acrylamide] | < 1000
26 | C=CC(=O)N1CC2(CC(Oc3ncnc(N)c3-c3ccc(Oc4cccnc4)cc3)C2)C1 [A221, 1-(6-((6-amino-5-(4-(pyridin-3-yloxy)phenyl)pyrimidin-4-yl)oxy)-2-azaspiro[3.3]heptan-2-yl)prop-2-en-1-one] | > 1000
27 | Nc1cccc(Oc2ncnc(N)c2-c2ccc(Oc3ccccc3)cc2)c1 [A305, 6-(3-aminophenoxy)-5-(4-phenoxyphenyl)pyrimidin-4-amine] | > 1000
28 | C=CC(=O)Nc1cccc(Oc2ncnc(N)c2-c2cnn(Cc3ccccc3F)c2)c1 [A184, N-(3-((6-amino-5-(1-(2-fluorobenzyl)-1H-pyrazol-4-yl)pyrimidin-4-yl)oxy)phenyl)acrylamide] | < 100
29 | CC=CC(=O)c1cccc(CNc2ncnc(N)c2-c2ccc(Oc3ccccc3)cc2)c1 [A142, 1-(3-((6-Amino-5-(4-phenoxyphenyl)-pyrimidin-4-ylamino)-methyl)-phenyl)-but-2-en-1-one] | < 100
30 | C=C(C)C(=O)Nc1cccc(-c2cnccc2Oc2ccc(Oc3ccccc3)cc2)c1 [A322, N-(3-(4-(4-phenoxyphenoxy)pyridin-3-yl)phenyl)methacrylamide] | > 1000
31 | C=CC(=O)Nc1cccc(Oc2ncnc(N)c2-c2cnn(Cc3ccc(OC)cc3)c2)c1 [A72, N-(3-((6-amino-5-(1-(4-methoxybenzyl)-1H-pyrazol-4-yl)pyrimidin-4-yl)oxy)phenyl)acrylamide] | < 100
32 | Nc1ncnc(Oc2cccc(NC(=O)CCl)c2)c1-c1ccc(OCc2ccccc2)cc1F [A350, N-{3-(6-Amino-5-(4-benzyloxy-2-fluoro-phenyl)-pyrimidin-4-yloxy}-phenyl)-2-chloro-acetamide] | < 100
33 | C=CC(=O)N1CCC(CNc2ncnc(N)c2-c2ccc(OC3CCCCC3)cc2)CC1 [A99, 1-(4-(((6-amino-5-(4-(cyclohexyloxy)phenyl)pyrimidin-4-yl)amino)methyl)piperidin-1-yl)prop-2-en-1-one] | < 1000
34 | CN(C)C/C=C/C(=O)Nc1cccc(-c2cnccc2Oc2ccc(Oc3ccccc3)cc2)c1 [A282, (E)-4-(dimethylamino)-N-(3-(4-(4-phenoxyphenoxy)pyridin-3-yl)phenyl)but-2-enamide] | < 100
35 | C=CC(=O)Nc1ccc(F)c(Oc2ncnc(N)c2-c2ccc(Oc3ccccc3)nc2)c1 [A161, N-(3-((6-amino-5-(6-phenoxypyridin-3-yl)pyrimidin-4-yl)oxy)-4-fluorophenyl)acrylamide] | < 100
36 | C=CC(=O)N1CCC(CN(C)c2ncnc(N)c2-c2ccc(Oc3ccccc3)cc2)CC1 [A47, 1-(4-(((6-amino-5-(4-phenoxyphenyl)pyrimidin-4-yl)(methyl)amino)methyl)piperidin-1-yl)prop-2-en-1-one] | < 1000
37 | C=CC(=O)Nc1cccc(Oc2ncnc(N)c2-c2cccc(OC(F)(F)F)c2)c1 [A164, N-(3-((6-amino-5-(3-(trifluoromethoxy)phenyl)pyrimidin-4-yl)oxy)phenyl)acrylamide] | > 1000
38 | C=CC(=O)Nc1cccc(Oc2ncnc(N)c2-c2ccc(OCc3ccccc3)cc2)c1 [A249, N-(3-((6-amino-5-(4-(benzyloxy)phenyl)pyrimidin-4-yl)oxy)phenyl)acrylamide] | < 100
39 | Nc1ncnc(Oc2ccc(Oc3ccccc3)cc2)c1-c1cccc(NC(=O)/C=C/CN2CCCC(F)(F)C2)c1 [A301, (E)-N-(3-(4-amino-6-(4-phenoxyphenoxy)pyrimidin-5-yl)phenyl)-4-(3,3-difluoropiperidin-1-yl)but-2-enamide] | > 1000
40 | C#CC(=O)N1CC(CCNc2ncnc(N)c2-c2ccc(Oc3ccccc3)cc2)C1 [A104, 1-(3-(2-((6-amino-5-(4-phenoxyphenyl)pyrimidin-4-yl)amino)ethyl)azetidin-1-yl)prop-2-yn-1-one] | < 100
